# Measurements as given in ChEMBL document CHEMBL1146608, “Design and synthesis of pseudo-symmetric HIV protease inhibitors containing a novel hydroxymethylcarbonyl (HMC)-hydrazide isostere” (Bioorg Med Chem Lett, 2003).
# Legend:
# [1] = test system: MT4; assay: Cytotoxic effect against HIV-IIIB strain in MT-4 cells; type: functional; details: Homo sapiens, read-out: TD50 (the source's name)
# [2] = Selectivity index expressed as ratio of TD50 to EC50; type: functional
# [3] = target: Human immunodeficiency virus type 1 protease (Human immunodeficiency virus 1, UniProt Q72874); assay: Inhibitory activity against HIV-1 protease
# [4] = test system: MT4; assay: Inhibitory concentration against HIV-IIIB strain in MT-4 cells; type: functional, cell-based; details: Homo sapiens
SMILES,CC50 [1] [nM],Therapeutic index [2],Ki [3] [nM],EC50 [4] [nM]
CSC[C@H](NC(=O)OCc1cccc2cnccc12)C(=O)N[C@@H](Cc1ccccc1)[C@H](O)C(=O)N(Cc1ccccc1)NC(=O)COc1c(C)cccc1C,> 100,> 53,0.25,1.9
Cc1cccc(C)c1OCC(=O)N[C@@H](Cc1ccccc1)[C@H](O)C(=O)N(Cc1ccccc1)NC(=O)c1cccc(O)c1C,12,11,3,1.1
Cc1c(O)cccc1C(=O)N[C@@H](Cc1ccccc1)[C@H](O)C(=O)N(Cc1ccccc1)NC(=O)c1cccc(O)c1C,73,66,15,1.1
Cc1cccc(C)c1OCC(=O)NN(Cc1ccccc1)C(=O)[C@@H](O)[C@H](Cc1ccccc1)NC(=O)c1cccc(O)c1C,12,6.7,5.8,1.8
Cc1c(O)cccc1C(=O)N[C@@H](Cc1ccccc1)[C@@H](O)C(=O)N(Cc1ccccc1)NC(=O)c1cccc(O)c1C,91,57,0.16,1.6
Cc1cc(N)cc(C)c1OCC(=O)N[C@@H](Cc1ccccc1)[C@H](O)C(=O)N(Cc1ccccc1)NC(=O)c1cccc(O)c1C,35,73,5,0.48
CSC[C@H](NC(=O)OCc1cccc2cnccc12)C(=O)N[C@@H](Cc1ccccc1)[C@H](O)C(=O)N(Cc1ccccc1)NC(=O)c1cccc(O)c1C,23,58,0.47,0.4
